Test results published in patent US20060276464A1, “Diarylsulfone sulfonamides and use thereof” (Wyeth, priority 2005, published 2006).
Like-named read-outs stand apart in the source and are kept apart here.

Molecular target: T1, SFRP-1 (Homo sapiens, UniProt Q8N474)
T1 sequence (Q8N474 32-314): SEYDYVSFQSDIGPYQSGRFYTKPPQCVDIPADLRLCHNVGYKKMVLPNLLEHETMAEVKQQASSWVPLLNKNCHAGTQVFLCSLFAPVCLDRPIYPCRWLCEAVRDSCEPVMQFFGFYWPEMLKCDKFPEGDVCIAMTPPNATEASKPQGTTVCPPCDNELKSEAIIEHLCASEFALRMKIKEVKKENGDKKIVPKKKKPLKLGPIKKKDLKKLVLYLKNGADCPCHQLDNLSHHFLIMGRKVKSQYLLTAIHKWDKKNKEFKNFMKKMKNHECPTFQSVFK
Experiment: Cell-based assay for in vitro measurement of SFRP-1/SARP2 antagonist activity (U2OS cells co-transfected with 16x TCF-tk-Luciferase reporter, Wnt and hSFRP-1);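 further: U2OS cells co-transfected with a TCF-tk luciferase reporter, a Wnt vector, hSFRP-1 or empty vector and CMV-βgal, luciferase luminescence read in cell lysates alongside βgal activity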
Details: for fold induction at 15 µM / fold induction at 10 µM / fold induction at 30 µM / fold induction at 60 µM: U2OS; for fold induction at 10 µM: read-out: Fold Induction with SFRP-1, U2OS cells, single dose 10 μM, luciferase reporter, fold induction over SFRP-1 control

[1] = read-out: Fold Induction with SFRP-1, Conc 15 μM, with SFRP-1, fold induction over SFRP-1 control, single dose
[2] = read-out: Fold Induction without SFRP-1, Conc 15 μM, without SFRP-1, single dose
[3] = read-out: Fold Induction with SFRP-1, Conc 15 μM, single dose, luciferase reporter, fold induction over SFRP-1 control, cells with SFRP-1
[4] = read-out: Fold Induction without SFRP-1, Conc 15 μM, single dose, luciferase reporter, cells without SFRP-1 (specificity control)
[5] = read-out: Fold Induction with SFRP-1, Conc 30 μM, with SFRP-1, fold induction over SFRP-1 control, single dose
[6] = read-out: Fold Induction without SFRP-1, Conc 30 μM, without SFRP-1, single dose

Row | fold induction at 15 µM [1] | fold induction at 15 µM [2] | SMILES | also measured
1 | 2.5 | 1.1 | Cc1ccc(S(=O)(=O)c2ccc(-c3ccccc3)cc2)cc1S(=O)(=O)NCCc1ccccn1 [Example 433, 5-(biphenyl-4-ylsulfonyl)-2-methyl-N-(2-pyridin-2-ylethyl)benzenesulfonamide] | –
2 | 2 | 1.3 | CCc1ccc(S(=O)(=O)c2ccccc2)cc1S(=O)(=O)N1CCN(CCN(CC)CC)CC1 [Example 286, N,N-diethyl-N-[2-(4-{[2-ethyl-5-(phenylsulfonyl)phenyl]sulfonyl}piperazin-1-yl)ethyl]amine] | –
3 | 2.2 | 1.2 | CCN(CC)CCCNS(=O)(=O)c1cc(S(=O)(=O)c2ccccc2)ccc1C [Example 218, N-[3-(diethylamino)propyl]-2-methyl-5-(phenylsulfonyl)benzenesulfonamide] | –
4 | 0.8 | 0.8 | Cc1ccc(S(=O)(=O)c2ccc(C)c(S(=O)(=O)N(C)CCc3ccccc3F)c2)cc1 [Example 275, N-[2-(2-fluorophenyl)ethyl]-N,2-dimethyl-5-[(4-methylphenyl)sulfonyl]benzenesulfonamide] | –

The remaining lines, values behind:

Row | SMILES | fold induction at 15 µM [1] | fold induction at 15 µM [2] | also measured
5 | COCC(=O)N1CCC(NS(=O)(=O)c2cc(S(=O)(=O)c3ccccc3)ccc2C)CC1 [Example 469, N-[1-(methoxyacetyl)piperidin-4-yl]-2-methyl-5-(phenylsulfonyl)benzenesulfonamide] | 3.6 | 1.1 | –
6 | CC(C)(C)OC(=O)N1CCCC1CCNS(=O)(=O)c1cc(S(=O)(=O)c2ccccc2)ccc1C(F)(F)F (stereo not drawn) [Example 908, tert-butyl 2-[2-({[5-(phenylsulfonyl)-2-(trifluoromethyl)phenyl]sulfonyl}amino)ethyl]pyrrolidine-1-carboxylate] | – | – | fold induction at 10 µM: 1.1
7 | CCc1ccc(S(=O)(=O)c2ccc(F)cc2)cc1S(=O)(=O)NCC1CCOCC1 [Example 384, 2-ethyl-5-[(4-fluorophenyl)sulfonyl]-N-(tetrahydro-2H-pyran-4-ylmethyl)benzenesulfonamide] | 2.6 | 0.8 | –
8 | Cc1ccc(S(=O)(=O)c2ccccc2)cc1S(=O)(=O)NC1CCN(C(=O)NC2CCCCC2)CC1 [Example 491, N-cyclohexyl-4-({[2-methyl-5-(phenylsulfonyl)phenyl]sulfonyl}amino)piperidine-1-carboxamide] | – | – | fold induction at 15 µM [3]: 1.1; fold induction at 15 µM [4]: 1
9 | COc1ccccc1CCNS(=O)(=O)c1cc(S(=O)(=O)c2ccc(F)cc2)ccc1C [Example 4, 5-[(4-fluorophenyl)sulfonyl]-N-[2-(2-methoxyphenyl)ethyl]-2-methylbenzenesulfonamide] | – | – | fold induction at 30 µM [5]: 0.1; fold induction at 30 µM [6]: 0.1
10 | Cc1ccc(S(=O)(=O)c2ccc3ccccc3c2)cc1S(=O)(=O)NCCCn1ccnc1 [Example 339, N-[3-(1H-imidazol-1-yl)propyl]-2-methyl-5-(2-naphthylsulfonyl)benzenesulfonamide] | 2.6 | 1.1 | –
11 | O=S(=O)(NCCN1CCCCC1)c1cccc(S(=O)(=O)c2ccccc2)c1 [Example 188, 3-(phenylsulfonyl)-N-(2-piperidin-1-ylethyl)benzenesulfonamide] | – | – | fold induction at 30 µM [5]: 1.4; fold induction at 30 µM [6]: 1.4
12 | Cc1ccc(S(=O)(=O)c2ccc(NCc3ccc(C(F)(F)F)cc3)cc2)cc1S(=O)(=O)NCCCn1ccnc1 [Example 374, N-[3-(1H-imidazol-1-yl)propyl]-2-methyl-5-[(4-{[4-(trifluoromethyl)benzyl]amino}phenyl)sulfonyl]benzenesulfonamide] | 1.5 | 0.9 | –
13 | Cc1ccc(S(=O)(=O)c2cccs2)cc1S(=O)(=O)NCCCn1ccnc1 [Example 362, N-[3-(1H-imidazol-1-yl)propyl]-2-methyl-5-(2-thienylsulfonyl)benzenesulfonamide] | 2.4 | 1.1 | –
14 | O=S(=O)(NC(CO)CO)c1cc(S(=O)(=O)c2ccccc2)ccc1Cl [Example 675, 2-chloro-N-[2-hydroxy-1-(hydroxymethyl)ethyl]-5-(phenylsulfonyl)benzenesulfonamide] | – | – | EC50: 41.5 µM; fold induction at 10 µM: 1.7
15 | COCCCNS(=O)(=O)c1cc(S(=O)(=O)c2ccccc2)ccc1OC [Example 238, 2-methoxy-N-(3-methoxypropyl)-5-(phenylsulfonyl)benzenesulfonamide] | 1.3 | 0.9 | –
16 | Cc1ccc(S(=O)(=O)c2ccccc2)cc1S(=O)(=O)NC[C@@H](C)c1ccccc1 [Example 262, 2-methyl-N-[(2S)-2-phenylpropyl]-5-(phenylsulfonyl)benzenesulfonamide] | 1.6 | 1.1 | –
17 | CC(=O)N1CCC(NS(=O)(=O)c2cc(S(=O)(=O)c3ccccc3)ccc2C)CC1 [Example 479, N-(1-acetylpiperidin-4-yl)-2-methyl-5-(phenylsulfonyl)benzenesulfonamide] | 2.1 | 1.1 | –
18 | Cc1ccc(S(=O)(=O)c2ccccc2)cc1S(=O)(=O)NCCC(=O)N(C)c1ccccc1 [Example 668, N-methyl-N^3-{[2-methyl-5-(phenylsulfonyl)phenyl]sulfonyl}-N-phenyl-β-alaninamide] | – | – | fold induction at 10 µM: 1.4
19 | COc1ccc(CCNS(=O)(=O)c2cc(S(=O)(=O)c3ccc(Cl)cc3)ccc2C)cc1OC [Example 92, 5-[(4-chlorophenyl)sulfonyl]-N-[2-(3,4-dimethoxyphenyl)ethyl]-2-methylbenzenesulfonamide] | – | – | fold induction at 30 µM [5]: 1; fold induction at 30 µM [6]: 0.4
20 | COc1cccc(CCNS(=O)(=O)c2cc(S(=O)(=O)c3ccccc3)ccc2C)c1 [Example 33, N-[2-(3-methoxyphenyl)ethyl]-2-methyl-5-(phenylsulfonyl)benzenesulfonamide] | – | – | fold induction at 30 µM [5]: 1.2; fold induction at 30 µM [6]: 0.4
21 | Cc1ccc(S(=O)(=O)c2ccccc2)cc1S(=O)(=O)NCCC(N)=O [Example 203, N^3-{[2-methyl-5-(phenylsulfonyl)phenyl]sulfonyl}-beta-alaninamide] | 2.5 | 1.3 | –
22 | CCOC(=O)C1CCCN(S(=O)(=O)c2cc(S(=O)(=O)c3ccccc3)ccc2Cl)C1 (stereo not drawn) [Example 645, ethyl 1-{[2-chloro-5-(phenylsulfonyl)phenyl]sulfonyl}piperidine-3-carboxylate] | – | – | fold induction at 15 µM [3]: 1; fold induction at 15 µM [4]: 1.1
23 | COc1cccc(CCNS(=O)(=O)c2cc(S(=O)(=O)c3ccc(C)cc3)ccc2C)c1 [Example 119, N-[2-(3-methoxyphenyl)ethyl]-2-methyl-5-[(4-methylphenyl)sulfonyl]benzenesulfonamide] | – | – | fold induction at 30 µM [5]: 0.2; fold induction at 30 µM [6]: 0.3
24 | CC(C)(C)c1ccc(C(=O)NCCNS(=O)(=O)c2cc(S(=O)(=O)c3ccccc3)ccc2C(F)(F)F)cc1 [Example 776, 4-tert-Butyl-N-[2-({[5-(phenylsulfonyl)-2-(trifluoromethyl)phenyl]sulfonyl}amino)ethyl]benzamide] | – | – | fold induction at 10 µM: 0.9
25 | CCS(=O)(=O)c1cccc(S(=O)(=O)c2ccc(C)c(S(=O)(=O)NCCc3ccccn3)c2)c1 [Example 429, 5-{[3-(ethylsulfonyl)phenyl]sulfonyl}-2-methyl-N-(2-pyridin-2-ylethyl)benzenesulfonamide] | 0.9 | 0.8 | –
26 | Cc1ccc(S(=O)(=O)NCCCn2ccnc2)cc1[S+]([O-])c1ccccc1 (stereo not drawn) [Example 306, N-[3-(1H-imidazol-1-yl)propyl]-4-methyl-3-(phenylsulfinyl)benzenesulfonamide] | – | – | fold induction at 60 µM (read-out: Fold Induction with SFRP-1, Conc 60 μM, with SFRP-1, fold induction over SFRP-1 control, single dose): 1.3; fold induction at 60 µM (read-out: Fold Induction without SFRP-1, Conc 60 μM, without SFRP-1, single dose): 0.9
27 | Cc1ccc(S(=O)(=O)c2ccc(C(C)(C)C)cc2)cc1S(=O)(=O)NCCc1ccccn1 [Example 438, 5-[(4-tert-butylphenyl)sulfonyl]-2-methyl-N-(2-pyridin-2-ylethyl)benzenesulfonamide] | 1.6 | 1 | –
28 | CN1CCN(CCCNS(=O)(=O)c2cc(S(=O)(=O)c3ccccc3)ccc2Cl)CC1 [Example 642, 2-chloro-N-[3-(4-methylpiperazin-1-yl)propyl]-5-(phenylsulfonyl)benzenesulfonamide] | – | – | fold induction at 15 µM [3]: 2.2; fold induction at 15 µM [4]: 1.1
29 | CCc1ccc(S(=O)(=O)c2ccccc2)cc1S(=O)(=O)N[C@H]1C[C@@H]1c1ccccc1 [Example 267, 2-ethyl-N-[(1S,2R)-2-phenylcyclopropyl]-5-(phenylsulfonyl)benzenesulfonamide] | 2 | 1.2 | –
30 | Cc1ccc(S(=O)(=O)c2ccc(Cl)cc2)cc1S(=O)(=O)NCCc1ccccc1Cl [Example 89, N-[2-(2-chlorophenyl)ethyl]-5-[(4-chlorophenyl)sulfonyl]-2-methylbenzenesulfonamide] | – | – | fold induction at 30 µM [5]: 1.8; fold induction at 30 µM [6]: 0.5
